Source: patent US9663528B2, “Substituted 1,2,3,4,6,8,12,12a-octahydro-1,4-methanodipyrido[1,2-a:1',2'-d]pyrazines and methods for treating viral infections” (priority 2012, dated 2017)

System: not listed separately
Experiment: Cytotoxicity (CC50) in MT-4 cells, mock-infected, CellTiter-Glo
Conditions: human
Experimental: For the antiviral assay utilizing MT4 cells, 0.4 μL of […] test concentration of 3-fold serially diluted compound in DMSO was added to 40 μL of cell growth medium (RPMI 1640, 10% FBS, 1% penicilline/Streptomycine, 1% L-Glutamine, 1% HEPES) in each well of 384-well assay plates (10 concentrations) in quidruplicate.
1 mL aliquots of 2×10^6 MT4 cells are pre-infected for 1 and 3 hours respectively at 37° C. with 25 μL (MT4) or of either cell growth medium (mock-infected) or a fresh 1:250 dilution of an HIV-IIIb concentrated ABI stock (0.004 m.o.i. for MT4 cells). Infected and uninfected cells are diluted in cell growth medium and 35 μL of 2000 (for MT4) cells is added to each well of the assay plates.
Assay plates were then incubated in a 37° C. incubator. After 5 days of incubation, 25 μL of 2× concentrated CellTiter-Glo™ Reagent (catalog #G7573, Promega Biosciences, Inc., Madison, Wis.) was added to each well of the assay plate. Cell lysis was carried out by incubating at room temperature for 2-3 minutes, and then chemiluminescence was read using the Envision reader (PerkinElmer).

Q: Which CC50 at 5 days does the source give for O=C(NC1(c2ccc(F)cc2F)CCCCC1)c1cn2c(c(O)c1=O)C(=O)N1C(C2)O[C@H]2CC[C@@H]1C2 (stereo partly drawn) [Compound 34, (2S,5R)-N-(1-(2,4-difluorophenyl)cyclohexyl)-8-hydroxy-7,9-dioxo-2,3,4,5,7,9,13,13a-octahydro-2,5-methanopyrido[1′,2′:4,5]pyrazino[2,1-b][1,3]oxazepine-10-carboxamide] here?
A: The CC50 at 5 days was 3580 nM.

Same assay, conditions: human, CC50 nM in MT-4

Q: For O=C(NCc1ccc(F)cc1F)c1cn2c(c(O)c1=O)C(=O)N1[C@@H]3CC[C@@H](C3)O[C@H]1C2 (racemic) [Compound 1, N-(2,4-difluorobenzyl)-8-hydroxy-7,9-dioxo-2,3,4,5,7,9,13,13a-octahydro-2,5-methanopyrido[1′,2′:4,5]pyrazino[2,1-b][1,3]oxazepine-10-carboxamide], which CC50 at 5 days is on record?
A: The CC50 at 5 days was 5820 nM.

Q: With O=C(NC1(c2ccc(F)cc2F)CCOCC1)c1cn2c(c(O)c1=O)C(=O)N1C(C2)O[C@H]2CC[C@@H]1C2 (stereo partly drawn) [Compound 35, (2S,5R)-N-(4-(2,4-difluorophenyl)tetrahydro-2H-pyran-4-yl)-8-hydroxy-7,9-dioxo-2,3,4,5,7,9,13,13a-octahydro-2,5-methanopyrido[1′,2′:4,5]pyrazino[2,1-b][1,3]oxazepine-10-carboxamide] as the compound, how does the CC50 at 5 days read?
A: Its CC50 at 5 days is 15500 nM.

Q: With C[C@H](NC(=O)c1cn2c(c(O)c1=O)C(=O)N1[C@@H]3CC[C@@H](C3)O[C@H]1C2)c1ccc(F)cc1 [Compound 21, (2S,5R,13aS)-N—((S)-1-(4-fluorophenyl)ethyl)-8-hydroxy-7,9-dioxo-2,3,4,5,7,9,13,13a-octahydro-2,5-methanopyrido[1′,2′:4,5]pyrazino[2,1-b][1,3]oxazepine-10-carboxamide] as the compound, how does the CC50 at 5 days read?
A: The CC50 at 5 days was 13000 nM.

Q: With O=C(NCc1ccc(F)cc1OC1CC1)c1cn2c(c(O)c1=O)C(=O)N1[C@@H]3CC[C@@H](C3)O[C@H]1C2 [Compound 52, (2S,5R,13aS)-N-(2-cyclopropoxy-4-fluorobenzyl)-8-hydroxy-7,9-dioxo-2,3,4,5,7,9,13,13a-octahydro-2,5-methanopyrido[1′,2′:4,5]pyrazino[2,1-b][1,3]oxazepine-10-carboxamide] as the compound, how does the CC50 at 5 days read?
A: The CC50 at 5 days was 12900 nM.

Q: With C[C@@H](NC(=O)c1cn2c(c(O)c1=O)C(=O)N1[C@H]3CC[C@H](C3)O[C@@H]1C2)c1ccc(F)cc1F [Compound 12, (2R,5S,13aR)-N—((R)-1-(2,4-difluorophenyl)ethyl)-8-hydroxy-7,9-dioxo-2,3,4,5,7,9,13,13a-octahydro-2,5-methanopyrido[1′,2′:4,5]pyrazino[2,1-b][1,3]oxazepine-10-carboxamide] as the compound, how does the CC50 at 5 days read?
A: The CC50 at 5 days was 3340 nM.

Q: With O=C(NCc1ccc(Cl)c(F)c1)c1cn2c(c(O)c1=O)C(=O)N1[C@@H]3CC[C@@H](C3)O[C@H]1C2 [Compound 26, (2S,5R,13aS)-N-(4-chloro-3-fluorobenzyl)-8-hydroxy-7,9-dioxo-2,3,4,5,7,9,13,13a-octahydro-2,5-methanopyrido[1′,2′:4,5]pyrazino[2,1-b][1,3]oxazepine-10-carboxamide] as the compound, how does the CC50 at 5 days read?
A: The CC50 at 5 days was 8840 nM.

Q: For O=C(NCc1ncc(F)cc1F)c1cn2c(c(O)c1=O)C(=O)N1[C@H]3CC[C@H](C3)[C@@H]1C2 [Compound 76, (1R,4S,12aR)-N-((3,5-difluoropyridin-2-yl)methyl)-7-hydroxy-6,8-dioxo-1,2,3,4,6,8,12,12a-octahydro-1,4-methanodipyrido[1,2-a:1′,2′-d]pyrazine-9-carboxamide], which CC50 at 5 days is on record?
A: Its CC50 at 5 days is 34600 nM.

Q: For O=C(NCc1ccc(F)cc1C(F)(F)F)c1cn2c(c(O)c1=O)C(=O)N1[C@H]3CC[C@H](C3)O[C@@H]1C2 [Compound 62, (2R,5S,13aR)-N-(4-fluoro-2-(trifluoromethyl)benzyl)-8-hydroxy-7,9-dioxo-2,3,4,5,7,9,13,13a-octahydro-2,5-methanopyrido[1′,2′:4,5]pyrazino[2,1-b][1,3]oxazepine-10-carboxamide], which CC50 at 5 days is on record?
A: Its CC50 at 5 days is 3490 nM.

Q: Which CC50 at 5 days does the source give for C[C@@H](NC(=O)c1cn2c(c(O)c1=O)C(=O)N1[C@@H]3CC[C@H](C3)O[C@@H]1C2)c1c(F)cc(F)cc1F [Compound 78, (2R,13aR)-8-hydroxy-7,9-dioxo-N—((R)-1-(2,4,6-trifluorophenyl)ethyl)-2,3,4,5,7,9,13,13a-octahydro-2,5-methanopyrido[1′,2′:4,5]pyrazino[2,1-b][1,3]oxazepine-10-carboxamide] here?
A: The CC50 at 5 days was 3200 nM.

Q: Which CC50 at 5 days does the source give for O=C(NCc1ccc(F)c(C(F)(F)F)c1)c1cn2c(c(O)c1=O)C(=O)N1[C@@H]3CC[C@@H](C3)O[C@H]1C2 [Compound 25, (2S,5R,13aS)-N-(4-fluoro-3-(trifluoromethyl)benzyl)-8-hydroxy-7,9-dioxo-2,3,4,5,7,9,13,13a-octahydro-2,5-methanopyrido[1′,2′:4,5]pyrazino[2,1-b][1,3]oxazepine-10-carboxamide] here?
A: The CC50 at 5 days was 5230 nM.

Q: Which CC50 at 5 days does the source give for C[C@H](NC(=O)c1cn2c(c(O)c1=O)C(=O)N1[C@H]3CC[C@H](C3)O[C@@H]1C2)c1ccc(F)cc1 [Compound 22, (2R,5S,13aR)-N—((S)-1-(4-fluorophenyl)ethyl)-8-hydroxy-7,9-dioxo-2,3,4,5,7,9,13,13a-octahydro-2,5-methanopyrido[1′,2′:4,5]pyrazino[2,1-b][1,3]oxazepine-10-carboxamide] here?
A: The CC50 at 5 days was 4430 nM.

Q: With O=C(NC1(c2ccc(F)cc2F)CC1)c1cn2c(c(O)c1=O)C(=O)N1C(C2)O[C@@H]2CC[C@H]1C2 (stereo partly drawn) [Compound 31, (2R,5S)-N-(1-(2,4-difluorophenyl)cyclopropyl)-8-hydroxy-7,9-dioxo-2,3,4,5,7,9,13,13a-octahydro-2,5-methanopyrido[1′,2′:4,5]pyrazino[2,1-b][1,3]oxazepine-10-carboxamide] as the compound, how does the CC50 at 5 days read?
A: Its CC50 at 5 days is 4520 nM.

Q: Which CC50 at 5 days does the source give for O=C(NCc1cc(F)cc(F)c1)c1cn2c(c(O)c1=O)C(=O)N1[C@@H]3CC[C@@H](C3)O[C@H]1C2 [Compound 24, (2S,5R,13aS)-N-(3,5-difluorobenzyl)-8-hydroxy-7,9-dioxo-2,3,4,5,7,9,13,13a-octahydro-2,5-methanopyrido[1′,2′:4,5]pyrazino[2,1-b][1,3]oxazepine-10-carboxamide] here?
A: The CC50 at 5 days was 12100 nM.

Q: Which CC50 at 5 days does the source give for C[C@H](NC(=O)c1cn2c(c(O)c1=O)C(=O)N1[C@H]3CC[C@H](C3)O[C@@H]1C2)c1ccc(F)cc1F [Compound 14, (2R,5S,13aR)-N—((S)-1-(2,4-difluorophenyl)ethyl)-8-hydroxy-7,9-dioxo-2,3,4,5,7,9,13,13a-octahydro-2,5-methanopyrido[1′,2′:4,5]pyrazino[2,1-b][1,3]oxazepine-10-carboxamide] here?
A: The CC50 at 5 days was 4940 nM.

Q: Which CC50 at 5 days does the source give for O=C(NCc1cc(Cl)c(F)cc1F)c1cn2c(c(O)c1=O)C(=O)N1[C@H]3CC[C@H](C3)O[C@@H]1C2 [Compound 65, (2R,5S,13aR)-N-(5-chloro-2,4-difluorobenzyl)-8-hydroxy-7,9-dioxo-2,3,4,5,7,9,13,13a-octahydro-2,5-methanopyrido[1′,2′:4,5]pyrazino[2,1-b][1,3]oxazepine-10-carboxamide] here?
A: Its CC50 at 5 days is 2510 nM.

Q: With O=C(NCc1ccc(F)cc1OC1CC1)c1cn2c(c(O)c1=O)C(=O)N1[C@H]3CC[C@H](C3)O[C@@H]1C2 [Compound 53, (2R,5S,13aR)-N-(2-cyclopropoxy-4-fluorobenzyl)-8-hydroxy-7,9-dioxo-2,3,4,5,7,9,13,13a-octahydro-2,5-methanopyrido[1′,2′:4,5]pyrazino[2,1-b][1,3]oxazepine-10-carboxamide] as the compound, how does the CC50 at 5 days read?
A: The CC50 at 5 days was 3350 nM.

Q: For O=C(NCc1cccc(C(F)(F)F)c1F)c1cn2c(c(O)c1=O)C(=O)N1[C@H]3CC[C@H](C3)[C@@H]1C2 [Compound 74, (1R,4S,12aR)-N-(2-fluoro-3-(trifluoromethyl)benzyl)-7-hydroxy-6,8-dioxo-1,2,3,4,6,8,12,12a-octahydro-1,4-methanodipyrido[1,2-a:1′,2′-d]pyrazine-9-carboxamide], which CC50 at 5 days is on record?
A: Its CC50 at 5 days is 4340 nM.

Q: Which CC50 at 5 days does the source give for O=C(NCc1ccccc1)c1cn2c(c(O)c1=O)C(=O)N1[C@H]3CC[C@H](C3)[C@@H]1C2 [Compound 94, (1R,4S,12aR)-N-benzyl-7-hydroxy-6,8-dioxo-1,2,3,4,6,8,12,12a-octahydro-1,4-methanodipyrido[1,2-a:1′,2′-d]pyrazine-9-carboxamide] here?
A: Its CC50 at 5 days is 51200 nM.

Q: With O=C(NC1(c2ccc(F)cc2F)CC1)c1cn2c(c(O)c1=O)C(=O)N1C(C2)O[C@H]2CC[C@@H]1C2 (stereo partly drawn) [Compound 27, (2S,5R)-N-(1-(2,4-difluorophenyl)cyclopropyl)-8-hydroxy-7,9-dioxo-2,3,4,5,7,9,13,13a-octahydro-2,5-methanopyrido[1′,2′:4,5]pyrazino[2,1-b][1,3]oxazepine-10-carboxamide] as the compound, how does the CC50 at 5 days read?
A: The CC50 at 5 days was 8750 nM.

Q: For O=C(NCc1ncccc1C(F)(F)F)c1cn2c(c(O)c1=O)C(=O)N1[C@@H]3CC[C@@H](C3)O[C@H]1C2 [Compound 49, (2S,5R,13aS)-8-hydroxy-7,9-dioxo-N-((3-(trifluoromethyl)pyridin-2-yl)methyl)-2,3,4,5,7,9,13,13a-octahydro-2,5-methanopyrido[1′,2′:4,5]pyrazino[2,1-b][1,3]oxazepine-10-carboxamide], which CC50 at 5 days is on record?
A: The CC50 at 5 days was 52200 nM.

Molecular target: PXR (Homo sapiens (Human), UniProt O75469)
Sequence (O75469 whole entry): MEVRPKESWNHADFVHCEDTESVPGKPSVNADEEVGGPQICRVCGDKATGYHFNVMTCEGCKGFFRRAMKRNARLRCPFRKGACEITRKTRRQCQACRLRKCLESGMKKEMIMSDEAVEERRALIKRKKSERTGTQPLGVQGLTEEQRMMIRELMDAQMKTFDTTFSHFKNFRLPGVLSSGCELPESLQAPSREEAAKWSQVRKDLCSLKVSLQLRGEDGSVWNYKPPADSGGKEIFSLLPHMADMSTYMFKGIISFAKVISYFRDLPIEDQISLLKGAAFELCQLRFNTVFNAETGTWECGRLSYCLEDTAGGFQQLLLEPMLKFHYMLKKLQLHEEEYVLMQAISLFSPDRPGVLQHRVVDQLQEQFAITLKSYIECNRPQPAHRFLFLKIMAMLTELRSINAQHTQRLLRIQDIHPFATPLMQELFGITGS
Experiment: Human PXR activation assay (luciferase reporter gene assay, DPX2 cells)
Format: cell-based
Conditions: human
Experimental: A stably transformed tumor cell line (DPX2) was plated on 96-well microtiter plates. DPX2 cells harbor the human PXR gene (NR112) and a luciferase reporter gene linked to two promoters identified in the human CYP3A4 gene, namely XREM and PXRE. […] The number of viable cells was determined and the reporter gene activity was assessed. Positive control: […]

Q: For O=C(NCc1ccc(F)cc1F)c1cn2c(c(O)c1=O)C(=O)N1C(C2)[N@]2CC[C@H]1C2 (stereo partly drawn) [Compound 6, (1R,4S)-N-(2,4-difluorobenzyl)-7-hydroxy-6,8-dioxo-3,4,6,8,12,12a-hexahydro-2H-1,4-methanopyrido[1′,2′:4,5]pyrazino[1,2-a]pyrimidine-9-carboxamide], which Emax at 24 h, 15 µM is on record?
A: The Emax at 24 h, 15 µM was 0%.
